Bridge positions count the residues as written; N and C are the ends. Square brackets hold non-standard residues; d marks the D form. Peptide text beside a SMILES is read from it. * marks the point of attachment. Phe(4-COOH) = N[C@@H](Cc1ccc(C(=O)O)cc1)C(=O)O; Bip = N[C@@H](Cc1ccc(-c2ccccc2)cc1)C(=O)O; Phe(3-Me) = Cc1cccc(C[C@H](N)C(=O)O)c1; 4Pal = N[C@@H](Cc1ccncc1)C(=O)O; Cit = NC(=O)NCCC[C@H](N)C(=O)O; aThr = C[C@H](O)[C@H](N)C(=O)O; Carboxymethyl = O=C(O)C*; NMeA = CN[C@@H](C)C(=O)O; Dab = NCC[C@H](N)C(=O)O; Dap = NC[C@H](N)C(=O)O
Target: T1, PE-labeled human PD-L1-Ig binding to Jurkat cell line over-expressing human PD-1 (Jurkat-PD-1) (Homo sapiens, UniProt Q15116)
T1 construct: expressed in transfected cells; host or cells: Jurkat
Assay: Jurkat-PD-1 Cell Binding High-Content Screening Assay (CBA): Method 1
Conditions: Jurkat-hPD-1 cells, PE-labeled PD-L1-Ig 20 nM final; read-out: Jurkat HPDL1 PD1 IC50 (uM) (Method 1)

T1 sequence (Q15116 25-288): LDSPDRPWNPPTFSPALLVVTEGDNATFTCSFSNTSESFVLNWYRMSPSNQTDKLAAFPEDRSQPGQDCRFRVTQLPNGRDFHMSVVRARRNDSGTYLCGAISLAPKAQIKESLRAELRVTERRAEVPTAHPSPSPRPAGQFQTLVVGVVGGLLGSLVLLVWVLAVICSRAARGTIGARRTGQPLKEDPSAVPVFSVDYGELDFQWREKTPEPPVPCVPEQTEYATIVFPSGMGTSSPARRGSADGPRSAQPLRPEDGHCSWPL

IC50 [µM]	Compound
0.01	CC(C)C[C@@H]1NC(=O)[C@H](CCN)NC(=O)[C@@H](CC(C)C)NC(=O)[C@H](C)N(C)C(=O)[C@H](C(C)C)NC(=O)[C@H](Cc2ccc(-c3ccccc3)cc2)NC(=O)[C@H](C(C)C)NC(=O)[C@H](Cc2c[nH]c3ccccc23)NC(=O)[C@H](CC(=O)O)NC(=O)[C@H](Cc2ccc(OCC(=O)O)cc2)NC(=O)[C@H](Cc2ccncc2)NC(=O)CSC[C@@H](C(=O)N[C@@H](C)C(N)=O)NC(=O)[C@H]([C@@H](C)O)NC(=O)[C@H](C(C)C)NC1=O [Compound 1565] ({CH2CO}-[4Pal]Y(Carboxymethyl)DWV[Bip]V[NMeA][dL][Dab]LVTCA-NH2; thioether N-14)
0.04	CC(C)C[C@@H]1NC(=O)[C@H](CCN)NC(=O)[C@@H](CC(C)C)NC(=O)[C@H](C)N(C)C(=O)[C@H](CCCNC(N)=O)NC(=O)[C@H](Cc2ccc(-c3ccccc3)cc2)NC(=O)[C@H](C(C)C)NC(=O)[C@H](Cc2c[nH]c3ccccc23)NC(=O)[C@H](CC(=O)O)NC(=O)[C@H](Cc2ccc(OCC(=O)O)cc2)NC(=O)[C@H](CN)NC(=O)CSC[C@@H](C(=O)N[C@@H](C)C(N)=O)NC(=O)[C@H]([C@@H](C)O)NC(=O)[C@H](C(C)C)NC1=O [Compound 1566] ({CH2CO}-[Dap]Y(Carboxymethyl)DWV[Bip][Cit][NMeA][dL][Dab]LVTCA-NH2; thioether N-14)
0.02	CC(C)C[C@@H]1NC(=O)[C@H](CCN)NC(=O)[C@@H](CC(C)C)NC(=O)[C@H](C)N(C)C(=O)[C@H](C(C)C)NC(=O)[C@H](Cc2ccc(-c3ccccc3)cc2)NC(=O)[C@H](C(C)C)NC(=O)[C@H](Cc2c[nH]c3ccccc23)NC(=O)[C@H](CC(=O)O)NC(=O)[C@H](Cc2ccc(OCC(=O)O)cc2)NC(=O)[C@H](Cc2ccc(OCC(=O)O)cc2)NC(=O)CSC[C@@H](C(=O)N[C@@H](C)C(N)=O)NC(=O)[C@H]([C@@H](C)O)NC(=O)[C@H](C(C)C)NC1=O [Compound 1567] ({CH2CO}-Y(Carboxymethyl)Y(Carboxymethyl)DWV[Bip]V[NMeA][dL][Dab]LVTCA-NH2; thioether N-14)
0.01	CC[C@H](C)[C@@H]1NC(=O)[C@H](Cc2ccc(-c3ccccc3)cc2)NC(=O)[C@H](C(C)C)NC(=O)[C@H](Cc2c[nH]c3ccccc23)NC(=O)[C@H](CC(=O)O)NC(=O)[C@H](Cc2ccc(OCC(=O)O)cc2)NC(=O)[C@H](Cc2ccc(OCC(=O)O)cc2)NC(=O)CSC[C@@H](C(=O)N[C@@H](C)C(N)=O)NC(=O)[C@H]([C@@H](C)O)NC(=O)[C@H](C(C)C)NC(=O)[C@H](CC(C)C)NC(=O)[C@H](CCN)NC(=O)[C@@H](CC(C)C)NC(=O)[C@H](C)N(C)C1=O [Compound 1568] ({CH2CO}-Y(Carboxymethyl)Y(Carboxymethyl)DWV[Bip]I[NMeA][dL][Dab]LVTCA-NH2; thioether N-14)
0.04	CC(C)C[C@@H]1NC(=O)[C@H](CCN)NC(=O)[C@@H](CC(C)C)NC(=O)[C@H](C)N(C)C(=O)[C@H](CCCNC(N)=O)NC(=O)[C@H](Cc2ccc(-c3ccccc3)cc2)NC(=O)[C@H](C(C)C)NC(=O)[C@H](Cc2c[nH]c3ccccc23)NC(=O)[C@H](CC(=O)O)NC(=O)[C@H](Cc2ccc(OCC(=O)O)cc2)NC(=O)[C@H](Cc2ccc(OCC(=O)O)cc2)NC(=O)CSC[C@@H](C(=O)N[C@@H](C)C(N)=O)NC(=O)[C@H]([C@@H](C)O)NC(=O)[C@H](C(C)C)NC1=O [Compound 1569] ({CH2CO}-Y(Carboxymethyl)Y(Carboxymethyl)DWV[Bip][Cit][NMeA][dL][Dab]LVTCA-NH2; thioether N-14)
0.01	CC(C)C[C@@H]1NC(=O)[C@H](CCN)NC(=O)[C@@H](CC(C)C)NC(=O)[C@H](C)N(C)C(=O)[C@H](C(C)C)NC(=O)[C@H](Cc2ccc(-c3ccccc3)cc2)NC(=O)[C@H](C(C)C)NC(=O)[C@H](Cc2c[nH]c3ccccc23)NC(=O)[C@H](CC(=O)O)NC(=O)[C@H](Cc2ccc(C(=O)O)cc2)NC(=O)[C@H](Cc2ccc(OCC(=O)O)cc2)NC(=O)CSC[C@@H](C(=O)N[C@@H](C)C(N)=O)NC(=O)[C@H]([C@@H](C)O)NC(=O)[C@H](C(C)C)NC1=O [Compound 1570] ({CH2CO}-Y(Carboxymethyl)[Phe(4-COOH)]DWV[Bip]V[NMeA][dL][Dab]LVTCA-NH2; thioether N-14)
0.01	Cc1cccc(C[C@@H]2NC(=O)[C@H](CC(=O)O)NC(=O)[C@H](Cc3ccc(C(=O)O)cc3)NC(=O)[C@H](Cc3ccc(OCC(=O)O)cc3)NC(=O)CSC[C@@H](C(=O)N[C@@H](C)C(N)=O)NC(=O)[C@H]([C@@H](C)O)NC(=O)[C@H](C(C)C)NC(=O)[C@H](CC(C)C)NC(=O)[C@H](CCN)NC(=O)[C@@H](CC(C)C)NC(=O)[C@H](C)N(C)C(=O)[C@H](C(C)C)NC(=O)[C@H](Cc3ccc(-c4ccccc4)cc3)NC(=O)[C@H](C(C)C)NC2=O)c1 [Compound 1571] ({CH2CO}-Y(Carboxymethyl)[Phe(4-COOH)]D[Phe(3-Me)]V[Bip]V[NMeA][dL][Dab]LVTCA-NH2; thioether N-14)
0.01	CC[C@H](C)[C@@H]1NC(=O)[C@H](Cc2ccc(-c3ccccc3)cc2)NC(=O)[C@H](C(C)C)NC(=O)[C@H](Cc2cccc(C)c2)NC(=O)[C@H](CC(=O)O)NC(=O)[C@H](Cc2ccc(C(=O)O)cc2)NC(=O)[C@H](Cc2ccc(OCC(=O)O)cc2)NC(=O)CSC[C@@H](C(=O)N[C@@H](C)C(N)=O)NC(=O)[C@H]([C@@H](C)O)NC(=O)[C@H](C(C)C)NC(=O)[C@H](CC(C)C)NC(=O)[C@H](CCN)NC(=O)[C@@H](CC(C)C)NC(=O)[C@H](C)N(C)C1=O [Compound 1572] ({CH2CO}-Y(Carboxymethyl)[Phe(4-COOH)]D[Phe(3-Me)]V[Bip]I[NMeA][dL][Dab]LVTCA-NH2; thioether N-14)
0.05	CC(C)C[C@@H]1NC(=O)[C@H](CCN)NC(=O)[C@@H](CC(C)C)NC(=O)[C@H](C)N(C)C(=O)[C@H](CCCNC(N)=O)NC(=O)[C@H](Cc2ccc(-c3ccccc3)cc2)NC(=O)[C@H](C(C)C)NC(=O)[C@H](Cc2c[nH]c3ccccc23)NC(=O)[C@H](CC(=O)O)NC(=O)[C@H](Cc2ccc(C(=O)O)cc2)NC(=O)[C@H](Cc2ccc(OCC(=O)O)cc2)NC(=O)CSC[C@@H](C(=O)N[C@@H](C)C(N)=O)NC(=O)[C@H]([C@@H](C)O)NC(=O)[C@H](C(C)C)NC1=O [Compound 1573] ({CH2CO}-Y(Carboxymethyl)[Phe(4-COOH)]DWV[Bip][Cit][NMeA][dL][Dab]LVTCA-NH2; thioether N-14)
0.02	Cc1cccc(C[C@@H]2NC(=O)[C@H](CC(=O)O)NC(=O)[C@H](Cc3ccc(C(=O)O)cc3)NC(=O)[C@H](Cc3ccc(OCC(=O)O)cc3)NC(=O)CSC[C@@H](C(=O)N[C@@H](C)C(N)=O)NC(=O)[C@H]([C@@H](C)O)NC(=O)[C@H](C(C)C)NC(=O)[C@H](CC(C)C)NC(=O)[C@H](CCN)NC(=O)[C@@H](CC(C)C)NC(=O)[C@H](C)N(C)C(=O)[C@H](CCCNC(N)=O)NC(=O)[C@H](Cc3ccc(-c4ccccc4)cc3)NC(=O)[C@H](C(C)C)NC2=O)c1 [Compound 1574] ({CH2CO}-Y(Carboxymethyl)[Phe(4-COOH)]D[Phe(3-Me)]V[Bip][Cit][NMeA][dL][Dab]LVTCA-NH2; thioether N-14)
0.05	CC(C)C[C@@H]1NC(=O)[C@H](CCN)NC(=O)[C@@H](CC(C)C)NC(=O)[C@H](C)N(C)C(=O)[C@H](CCC(=O)O)NC(=O)[C@H](Cc2ccc(-c3ccccc3)cc2)NC(=O)[C@H](C(C)C)NC(=O)[C@H](Cc2c[nH]c3ccccc23)NC(=O)[C@H](CC(=O)O)NC(=O)[C@H](Cc2ccc(OCC(=O)O)cc2)NC(=O)[C@H](Cc2ccncc2)NC(=O)CSC[C@@H](C(=O)N[C@@H](C)C(N)=O)NC(=O)[C@H](CO)NC(=O)[C@H](C(C)C)NC1=O [Compound 1575] ({CH2CO}-[4Pal]Y(Carboxymethyl)DWV[Bip]E[NMeA][dL][Dab]LVSCA-NH2; thioether N-14)
0.11	CC(C)C[C@@H]1NC(=O)[C@H](CCN)NC(=O)[C@@H](CC(C)C)NC(=O)[C@H](C)N(C)C(=O)[C@H](CCC(=O)O)NC(=O)[C@H](Cc2ccc(-c3ccccc3)cc2)NC(=O)[C@H](C(C)C)NC(=O)[C@H](Cc2c[nH]c3ccccc23)NC(=O)[C@H](CC(=O)O)NC(=O)[C@H](Cc2ccncc2)NC(=O)[C@H](CN)NC(=O)CSC[C@@H](C(=O)N[C@@H](C)C(N)=O)NC(=O)[C@H](CO)NC(=O)[C@H](C(C)C)NC1=O [Compound 1576] ({CH2CO}-[Dap][4Pal]DWV[Bip]E[NMeA][dL][Dab]LVSCA-NH2; thioether N-14)
0.03	CC(C)C[C@@H]1NC(=O)[C@H](CCN)NC(=O)[C@@H](CC(C)C)NC(=O)[C@H](C)N(C)C(=O)[C@H](CCC(=O)O)NC(=O)[C@H](Cc2ccc(-c3ccccc3)cc2)NC(=O)[C@H](C(C)C)NC(=O)[C@H](Cc2c[nH]c3ccccc23)NC(=O)[C@H](CC(=O)O)NC(=O)[C@H](Cc2ccc(OCC(=O)O)cc2)NC(=O)[C@H](Cc2ccc(OCC(=O)O)cc2)NC(=O)CSC[C@@H](C(=O)N[C@@H](C)C(N)=O)NC(=O)[C@H](CO)NC(=O)[C@H](C(C)C)NC1=O [Compound 1577] ({CH2CO}-Y(Carboxymethyl)Y(Carboxymethyl)DWV[Bip]E[NMeA][dL][Dab]LVSCA-NH2; thioether N-14)
0.01	Cc1cccc(C[C@@H]2NC(=O)[C@H](CC(=O)O)NC(=O)[C@H](Cc3ccc(OCC(=O)O)cc3)NC(=O)[C@H](Cc3ccc(OCC(=O)O)cc3)NC(=O)CSC[C@@H](C(=O)N[C@@H](C)C(N)=O)NC(=O)[C@H]([C@H](C)O)NC(=O)[C@H](C(C)C)NC(=O)[C@H](CC(C)C)NC(=O)[C@H](CCN)NC(=O)[C@@H](CC(C)C)NC(=O)[C@H](C)N(C)C(=O)[C@H](C(C)C)NC(=O)[C@H](Cc3ccc(-c4ccccc4)cc3)NC(=O)[C@H](C(C)C)NC2=O)c1 [Compound 1578] ({CH2CO}-Y(Carboxymethyl)Y(Carboxymethyl)D[Phe(3-Me)]V[Bip]V[NMeA][dL][Dab]LV[aThr]CA-NH2; thioether N-14)

Source: patent US20240409585A1, “MACROCYCLIC IMMUNOMODULATORS” (priority 2021, published 2024)
